What all share (assay type): cell-based
For assay [1], the target named is GluN1/GluN2A glutamate receptors (human GRIN1/GRIN2A) expressed in HEK293 cells (Homo sapiens (Human), UniProt Q05586+Q12879). As to the kind of experiment: Whole-cell patch clamp of mammalian cells (Ionworks Barracuda), positive allosteric modulation, GluN1/GluN2A. As to conditions: for Emax: read-out: GluN2A PCA EMax (%). How it is done:
(§1) NMDA potentiation in mammalian cells which expressed NMDA receptors was assessed using the automatic patch-clamp system can be used determine the NAM activity of compounds as described below. An whole cell patch-clamp system can be used determine the PAM activity of compounds as described below.
(§2) The measurements were performed using Ion Works Barracuda platform following this procedure:
(§3) Electrophysiological Procedures: • a) Intracellular solution (mM): 50 mM CsCl, 90 mM CsF, 2 mM MgCl2, 5 mM EGTA, 10 mM HEPES. Adjust to pH 7.2 with CsOH. • b) Extracellular solution, HB-PS (composition in mM): NaCl, 137; KCl, 1.0; CaCl2, 5; HEPES, 10; Glucose, 10; pH adjusted to 7.4 with NaOH (refrigerated until use). • c) Holding potential: −70 mV, potential during agonist/PAM application: −40 mV.
(§4) Recording Procedure: • a) Extracellular buffer will be loaded into the PPC plate wells (11 μL per well). Cell suspension will be pipetted into the wells (9 μL per well) of the PPC planar electrode. • b) Whole-cell recording configuration will be established via patch perforation with membrane currents recorded by on-board patch clamp amplifiers. • c) Two recordings (scans) will be performed. First, during pre-application of test article alone (duration of pre-application—5 min) and second, during test articles and agonist (EC20 L-glutamate and 30 μM glycine) co-application to detect positive modulatory effects of the test article.
(§5) Test Article Administration: The first pre-application will consist of the addition of 20 μL of 2× concentrated test article solution and, second, of 20 μL of 1× concentrated test article and agonist at 10 μL/s (2 second total application time).
(§6) Potentiating Effect of Positive Allosteric Modulators (PAM) on the Channel
(§7) The maximal amplitude of the evoked currents are measured and defined as Peak Current Amplitude (PCA).
For orientation: The patch-clamp technique gives a direct electrical read-out from membranes.

Assay [2] addresses GluN2B glutamate receptors expressed in mammalian cells (Homo sapiens (Human), UniProt Q05586+Q13224). Description: Whole-cell patch clamp of mammalian cells (Ionworks Barracuda), positive allosteric modulation, GluN2B. The following applies: for Emax: read-out: GluN2B PCA EMax (%). As for the experimental part:
as §1, §2, §3, §4, §5, §6, §7

Assay [3] addresses glutamate-activated channels of the GRIN1/2A subtype stably transfected in HEK 293 cells (Homo sapiens (Human), UniProt Q05586+Q12879). Description: Automated patch-clamp system (QPatch HTX), percent potentiation at 1 μM. The following applies: HEK293, 1 μM test compound, 300 μM NMDA with 8 μM glycine, HEK 293 GRIN1/2A, read-out: GluN2A PCA % potentiation at 1 μM. In short, it runs like this: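 Tetracycline-induced HEK 293 cells stably expressing human GRIN1/2A were whole-cell recorded on QPatch HTX in Mg-free bath solution at pH 7.4. Compound at 1.0 μM (0.1% DMSO) was co-applied with submaximal 300 μM NMDA plus 8 μM glycine, and percent potentiation was recorded.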

[4] abbreviates: peak current amplitude, co-application with EC20 L-glutamate and 30 μM glycine, HEK293.
Setting [5] is: peak current amplitude, co-application with EC20 L-glutamate and 30 μM glycine, read-out: GluN2B PCA EC50.
Where [6] appears, read: peak current amplitude, co-application with EC20 L-glutamate and 30 μM glycine.
The mark [7] stands for this setting: peak current amplitude, co-application with EC20 L-glutamate and 30 μM glycine, HEK293, read-out: GluN2A PCA EC50.

Read-outs that look alike come from different tables or passages of the source.

glutamate-activated channels of the GRIN1/2A subtype stably transfected in HEK 293 cells, sequence (Q12879 whole entry, looked up, other chains not shown): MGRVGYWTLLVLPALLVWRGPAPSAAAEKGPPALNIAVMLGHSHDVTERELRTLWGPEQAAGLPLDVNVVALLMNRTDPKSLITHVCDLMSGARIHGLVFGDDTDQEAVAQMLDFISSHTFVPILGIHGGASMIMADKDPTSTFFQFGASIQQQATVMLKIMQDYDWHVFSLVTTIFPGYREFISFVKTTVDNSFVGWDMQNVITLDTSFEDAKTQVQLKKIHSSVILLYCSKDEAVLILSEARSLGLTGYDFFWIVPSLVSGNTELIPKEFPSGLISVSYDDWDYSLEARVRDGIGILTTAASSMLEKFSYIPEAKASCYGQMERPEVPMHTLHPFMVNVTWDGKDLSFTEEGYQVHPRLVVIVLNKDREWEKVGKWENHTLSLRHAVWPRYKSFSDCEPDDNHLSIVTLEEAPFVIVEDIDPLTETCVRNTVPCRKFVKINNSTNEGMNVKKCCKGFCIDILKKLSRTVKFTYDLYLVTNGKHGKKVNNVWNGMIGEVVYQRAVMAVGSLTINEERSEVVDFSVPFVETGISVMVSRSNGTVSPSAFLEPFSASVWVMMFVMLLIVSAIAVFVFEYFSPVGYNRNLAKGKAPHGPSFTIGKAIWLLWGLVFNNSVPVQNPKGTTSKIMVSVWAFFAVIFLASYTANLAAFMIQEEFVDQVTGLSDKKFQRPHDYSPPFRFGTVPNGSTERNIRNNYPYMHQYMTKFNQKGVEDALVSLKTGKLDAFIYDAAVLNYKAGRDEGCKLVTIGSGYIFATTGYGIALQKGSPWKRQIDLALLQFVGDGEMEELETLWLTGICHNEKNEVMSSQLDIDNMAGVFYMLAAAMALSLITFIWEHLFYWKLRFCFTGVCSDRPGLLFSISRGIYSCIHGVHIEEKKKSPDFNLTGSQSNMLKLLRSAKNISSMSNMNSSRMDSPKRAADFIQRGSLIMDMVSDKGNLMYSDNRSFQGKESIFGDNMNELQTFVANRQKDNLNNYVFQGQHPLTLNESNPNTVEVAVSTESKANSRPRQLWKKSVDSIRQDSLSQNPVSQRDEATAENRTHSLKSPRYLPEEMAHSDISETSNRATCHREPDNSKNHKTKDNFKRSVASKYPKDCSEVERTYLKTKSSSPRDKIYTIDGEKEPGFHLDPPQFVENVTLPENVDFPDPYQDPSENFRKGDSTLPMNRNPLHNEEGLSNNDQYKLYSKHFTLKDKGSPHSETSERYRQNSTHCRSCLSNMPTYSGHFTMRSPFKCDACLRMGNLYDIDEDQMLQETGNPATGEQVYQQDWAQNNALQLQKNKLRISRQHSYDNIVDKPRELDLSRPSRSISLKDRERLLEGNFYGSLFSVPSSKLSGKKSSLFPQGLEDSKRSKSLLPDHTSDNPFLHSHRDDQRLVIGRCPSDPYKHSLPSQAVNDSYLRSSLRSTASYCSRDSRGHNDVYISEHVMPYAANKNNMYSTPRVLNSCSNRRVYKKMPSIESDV
GluN1/GluN2A glutamate receptors (human GRIN1/GRIN2A) expressed in HEK293 cells, sequence (Q12879 whole entry, looked up, other chains not shown): as above
GluN2B glutamate receptors expressed in mammalian cells, sequence (Q13224 27-1484, other chains not shown): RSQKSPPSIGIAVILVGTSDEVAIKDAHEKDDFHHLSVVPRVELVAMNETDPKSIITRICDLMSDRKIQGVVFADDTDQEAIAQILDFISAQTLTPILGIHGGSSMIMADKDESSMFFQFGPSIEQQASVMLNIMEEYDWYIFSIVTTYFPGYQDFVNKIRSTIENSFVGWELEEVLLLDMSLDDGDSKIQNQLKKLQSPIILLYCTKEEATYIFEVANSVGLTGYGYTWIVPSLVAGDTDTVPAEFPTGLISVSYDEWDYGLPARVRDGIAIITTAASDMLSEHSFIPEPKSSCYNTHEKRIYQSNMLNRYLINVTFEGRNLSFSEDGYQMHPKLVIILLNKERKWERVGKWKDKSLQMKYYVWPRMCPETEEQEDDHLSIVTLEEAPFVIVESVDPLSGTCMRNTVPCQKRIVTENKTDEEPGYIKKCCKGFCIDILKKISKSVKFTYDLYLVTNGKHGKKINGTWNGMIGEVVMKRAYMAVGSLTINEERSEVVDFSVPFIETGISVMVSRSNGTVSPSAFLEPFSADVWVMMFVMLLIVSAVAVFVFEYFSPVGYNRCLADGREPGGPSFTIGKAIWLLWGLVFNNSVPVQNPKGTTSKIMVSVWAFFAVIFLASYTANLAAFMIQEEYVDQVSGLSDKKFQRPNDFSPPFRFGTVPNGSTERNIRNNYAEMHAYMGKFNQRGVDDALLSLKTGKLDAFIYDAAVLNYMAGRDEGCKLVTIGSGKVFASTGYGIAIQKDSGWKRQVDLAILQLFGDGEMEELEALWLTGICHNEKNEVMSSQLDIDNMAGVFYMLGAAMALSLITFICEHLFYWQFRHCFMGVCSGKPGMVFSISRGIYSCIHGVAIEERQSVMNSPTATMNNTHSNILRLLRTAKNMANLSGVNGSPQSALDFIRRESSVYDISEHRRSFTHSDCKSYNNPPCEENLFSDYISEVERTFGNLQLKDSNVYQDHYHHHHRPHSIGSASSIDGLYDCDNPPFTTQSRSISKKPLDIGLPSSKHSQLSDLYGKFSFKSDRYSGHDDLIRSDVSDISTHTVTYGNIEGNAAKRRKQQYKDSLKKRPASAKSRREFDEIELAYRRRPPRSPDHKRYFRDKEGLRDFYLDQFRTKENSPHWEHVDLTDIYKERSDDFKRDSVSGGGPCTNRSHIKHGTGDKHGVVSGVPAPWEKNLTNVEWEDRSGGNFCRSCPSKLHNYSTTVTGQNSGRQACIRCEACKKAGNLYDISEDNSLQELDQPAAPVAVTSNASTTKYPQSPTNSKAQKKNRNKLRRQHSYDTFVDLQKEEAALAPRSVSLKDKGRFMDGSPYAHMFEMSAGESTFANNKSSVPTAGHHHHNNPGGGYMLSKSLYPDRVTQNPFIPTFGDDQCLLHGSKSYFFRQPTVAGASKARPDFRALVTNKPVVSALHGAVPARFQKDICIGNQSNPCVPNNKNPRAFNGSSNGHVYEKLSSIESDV

As to `CCC[C@H](O)[C@@H](C)[C@H]1CC[C@H]2[C@@H]3CC=C4C[C@](O)(CC)CC[C@]4(C)[C@H]3CC[C@]12C` [Compound 72, (3S,8S,9S,10R,13S,14S,17R)-3-ethyl-17-((2S,3S)-3-hydroxyhexan-2-yl)-10,13-dimethyl-2,3,4,7,8,9,10,11,12,13,14,15,16,17-tetradecahydro-1H-cyclopenta[a]phenanthren-3-ol], the EC50 in assay [1] and in assay [2] (setting [5]) was > 1000 nM each time. Also, the Emax in assay [1] (setting [4]) and in assay [2] (setting [6]) was < 100% each time. Besides, in assay [3], the activation at 1 µM was -40 to -10%.
As for `CC[C@]1(O)CC[C@@]2(C)[C@H](CC[C@@H]3[C@@H]2CC[C@]2(C)[C@@H]([C@H](C)[C@@H](O)CC4CCC(C)(C)CC4)CC[C@@H]32)C1` [Compound 59, (3S,5R,8R,9S,10S,13S,14S,17R)-17-((2S,3S)-4-(4,4-dimethylcyclohexyl)-3-hydroxybutan-2-yl)-3-ethyl-10,13-dimethylhexadecahydro-1H-cyclopenta[a]phenanthren-3-ol], the EC50 in assay [1] (setting [7]) and in assay [2] was > 1000 nM each time. The Emax in assay [1] (setting [4]) and in assay [2] was < 100% each time. Moreover, the activation at 1 µM in assay [3] was < -40%.
For `CC[C@]1(O)CC[C@@]2(C)C(=CC[C@H]3[C@@H]4CC[C@H]([C@H](C)[C@H](O)CC5CCCC5)[C@@]4(C)CC[C@@H]32)C1` [Compound 46, (3S,8S,9S,10R,13S,14S,17R)-17-((2S,3R)-4-cyclopentyl-3-hydroxybutan-2-yl)-3-ethyl-10,13-dimethyl-2,3,4,7,8,9,10,11,12,13,14,15,16,17-tetradecahydro-1H-cyclopenta[a]phenanthren-3-ol], the EC50 in assay [1] and in assay [2] (setting [5]) was > 1000 nM throughout. The Emax in assay [1] (setting [4]) and in assay [2] (setting [6]) was < 100% throughout. Further, the activation at 1 µM in assay [3] is -40 to -10%.
In the case of `CC[C@]1(O)CC[C@@]2(C)[C@@H](CC[C@@H]3[C@@H]2CC[C@]2(C)[C@@H]([C@H](C)[C@@H](O)Cc4ccccc4)CC[C@@H]32)C1` [Compound 32, (3S,5S,8R,9S,10S,13S,14S,17R)-3-ethyl-17-((2S,3S)-3-hydroxy-4-phenylbutan-2-yl)-10,13-dimethylhexadecahydro-1H-cyclopenta[a]phenanthren-3-ol], the EC50 in assay [1] and in assay [2] (setting [5]) was > 1000 nM in each case. In addition, the Emax in assay [1] (setting [4]) and in assay [2] (setting [6]) was < 100% throughout. The activation at 1 µM in assay [3] was -10 to 10%.
Take `CC[C@]1(O)CC[C@@]2(C)[C@@H](CC[C@@H]3[C@@H]2CC[C@]2(C)[C@@H]([C@H](C)[C@H](O)CC4CCC(C)(C)CC4)CC[C@@H]32)C1` [Compound 20, (3S,5S,8R,9S,10S,13S,14S,17R)-17-((2S,3R)-4-(4,4-dimethylcyclohexyl)-3-hydroxybutan-2-yl)-3-ethyl-10,13-dimethylhexadecahydro-1H-cyclopenta[a]phenanthren-3-ol]: the EC50 in assay [1] (setting [7]) and in assay [2] was > 1000 nM in each case. For the same compound, the maximal effect (Emax) in assay [1] (setting [4]) and in assay [2] was < 100% in each case. In addition, the activation at 1 µM in assay [3] is -40 to -10%.
With `CC[C@]1(O)CC[C@@]2(C)[C@H](CC[C@@H]3[C@@H]2CC[C@]2(C)[C@@H]([C@H](C)[C@@H](O)CC4CCCC4)CC[C@@H]32)C1` [Compound 94, (3S,5R,8R,9S,10S,13S,14S,17R)-17-((2S,3S)-4-cyclopentyl-3-hydroxybutan-2-yl)-3-ethyl-10,13-dimethylhexadecahydro-1H-cyclopenta[a]phenanthren-3-ol], the EC50 in assay [1] and in assay [2] (setting [5]) was > 1000 nM each time. Moreover, the Emax in assay [1] (setting [4]) and in assay [2] (setting [6]) was < 100% each time. In assay [3], the activation at 1 µM was -40 to -10%.
Turning to `CCC[C@H](O)[C@@H](C)[C@H]1CC[C@H]2[C@@H]3CC[C@@H]4C[C@](O)(CC)CC[C@]4(C)[C@H]3CC[C@]12C` [Compound 23, (3S,5R,8R,9S,10S,13S,14S,17R)-3-ethyl-17-((2S,3S)-3-hydroxyhexan-2-yl)-10,13-dimethylhexadecahydro-1H-cyclopenta[a]phenanthren-3-ol], the EC50 in assay [1] and in assay [2] (setting [5]) was > 1000 nM throughout. Also, the Emax in assay [1] (setting [4]) was < 100%; in assay [2] (setting [6]), 100 to 500%. Moreover, the activation at 1 µM in assay [3] was -40 to -10%.
As to `CC[C@]1(O)CC[C@@]2(C)C(=CC[C@H]3[C@@H]4CC[C@H]([C@H](C)[C@@H](O)CCC5CC5)[C@@]4(C)CC[C@@H]32)C1` [Compound 69, (3S,8S,9S,10R,13S,14S,17R)-17-((2S,3S)-5-cyclopropyl-3-hydroxypentan-2-yl)-3-ethyl-10,13-dimethyl-2,3,4,7,8,9,10,11,12,13,14,15,16,17-tetradecahydro-1H-cyclopenta[a]phenanthren-3-ol], the EC50 in assay [1] and in assay [2] (setting [5]) was > 1000 nM throughout. The Emax in assay [1] (setting [4]) and in assay [2] (setting [6]) was < 100% in each case. Moreover, the activation at 1 µM in assay [3] is -10 to 10%.
In the case of `CCC[C@H](O)[C@@H](C)[C@H]1CC[C@H]2[C@@H]3CC[C@H]4C[C@](O)(CC)CC[C@]4(C)[C@H]3CC[C@]12C` [Compound 38, (3S,5S,8R,9S,10S,13S,14S,17R)-3-ethyl-17-((2S,3S)-3-hydroxyhexan-2-yl)-10,13-dimethylhexadecahydro-1H-cyclopenta[a]phenanthren-3-ol], the EC50 in assay [1] and in assay [2] (setting [5]) was > 1000 nM in each case. The Emax in assay [1] (setting [4]) and in assay [2] (setting [6]) was < 100% throughout. In assay [3], the activation at 1 µM was -40 to -10%.
In the case of `CC[C@]1(O)CC[C@H]2[C@@H](CC[C@@H]3[C@@H]2CC[C@]2(C)[C@@H]([C@H](C)[C@H](O)CCC(C)C)CC[C@@H]32)C1` [Compound 40, (3S,5S,8R,9R,10S,13S,14S,17R)-3-ethyl-17-((2S,3R)-3-hydroxy-6-methylheptan-2-yl)-13-methylhexadecahydro-1H-cyclopenta[a]phenanthren-3-ol], the EC50 in assay [1] and in assay [2] (setting [5]) was > 1000 nM throughout. Further, the Emax in assay [1] (setting [4]) was < 100%; in assay [2] (setting [6]), 100 to 500%. The activation at 1 µM in assay [3] is -10 to 10%.
Consider `CC[C@]1(O)CC[C@@]2(C)C(=CC[C@H]3[C@@H]4CC[C@H]([C@H](C)[C@H](O)CCC5CC5)[C@@]4(C)CC[C@@H]32)C1` [Compound 6, (3S,8S,9S,10R,13S,14S,17R)-17-((2S,3R)-5-cyclopropyl-3-hydroxypentan-2-yl)-3-ethyl-10,13-dimethyl-2,3,4,7,8,9,10,11,12,13,14,15,16,17-tetradecahydro-1H-cyclopenta[a]phenanthren-3-ol], for which the EC50 in assay [1] and in assay [2] (setting [5]) was > 1000 nM each time. Besides, the Emax in assay [1] (setting [4]) and in assay [2] (setting [6]) was < 100% in each case. The activation at 1 µM in assay [3] is -10 to 10%.
Take `CC[C@]1(O)CC[C@@]2(C)C(=CC[C@H]3[C@@H]4CC[C@H]([C@H](C)[C@H](O)C(F)(F)F)[C@@]4(C)CC[C@@H]32)C1` [Compound 81, (3S,8S,9S,10R,13S,14S,17R)-3-ethyl-10,13-dimethyl-17-((2S,3S)-4,4,4-trifluoro-3-hydroxybutan-2-yl)-2,3,4,7,8,9,10,11,12,13,14,15,16,17-tetradecahydro-1H-cyclopenta[a]phenanthren-3-ol]: the activation at 1 µM in assay [3] is -40 to -10%.
Regarding `COC[C@]1(O)CC[C@@]2(C)[C@H](CC[C@@H]3[C@@H]2CC[C@]2(C)[C@@H]([C@H](C)[C@H](O)C(F)(F)F)CC[C@@H]32)C1` [Compound 71, (3S,5R,8R,9S,10S,13S,14S,17R)-3-(methoxymethyl)-10,13-dimethyl-17-((2S,3S)-4,4,4-trifluoro-3-hydroxybutan-2-yl)hexadecahydro-1H-cyclopenta[a]phenanthren-3-ol], the activation at 1 µM in assay [3] is -40 to -10%.

In general, EC50 refers to the concentration giving half of the maximal effect. The term Emax denotes the size of the effect at its maximum, as opposed to the concentration needed.

These data come from patent US11613556B2, “Oxysterols and methods of use thereof” (Sage Therapeutics, Inc., priority 2016, dated 2023).
